A short description of data set [1]: Stability of PAC esters in aqueous media at pH 7.4 and 37° C. It counts as physicochemical. The conditions noted are these: read-out: T½ (apparent half-life in aqueous media) (converted).
The test system of data set [2] is MCF7 human breast cancer cell. As to the kind of experiment: Inhibition of MCF7 human breast cancer cell growth (non-MDR cell line). The format is cell-based. The following applies: read-out: Potency (dose that inhibits MCF7 human breast cancer cell growth by 50%).
Data set [3] relates to MDR over non-MDR human breast cancer cell lines. As to the kind of experiment: MDR liability: growth inhibition in MDR over non-MDR human breast cancer cell lines. It counts as cell-based.

With `CC(=O)O[C@H]1C(=O)[C@@]2(C)[C@H]([C@H](OC(=O)c3ccccc3)[C@]3(O)C[C@H](OC(=O)[C@H](O)[C@@H](NC(=O)c4ccccc4)c4ccccc4)C(C)=C1C3(C)C)[C@]1(OC(C)=O)CO[C@@H]1C[C@@H]2O` [PAC, Paclitaxel], the half-life in data set [1] was 11.6 days. For the same compound, the IC50 in data set [2] stood at 6.9 nM. In data set [3], the MDR liability result is reported as “about 1000 fold”. Besides, the “MDR Liability (ratio of doses inhibiting growth by 50% in MDR over non-MDR human breast cancer cell lines)” value in data set [3] (MDR over non-MDR human breast cancer cell lines) is given as 1041.

As a reminder, the half-life is how long it takes for the measured level to halve.

Source of the values: patent US20060052312A1, “Paclitaxel hybrid derivatives” (priority 2003, published 2006).
